Data reported in the supplement of paper PMC10307832.

How the values were obtained:
Experiment in all cases: relative viability (nuclei count vs DMSO), 5 days (fraction); higher = more cells survive
[1] = compound: O=C(Nc1cccc(C(F)(F)F)c1)Nc1cc(S(=O)(=O)NC2CC2)ccc1-c1ccsc1 [AGI-6780] + CC(=O)c1c(C)c2cnc(Nc3ccc(N4CCNCC4)cn3)nc2n(C2CCCC2)c1=O [Palbociclib] (partner 0.5 µM)
Outline: (§1)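 One day after seeding in 1536-well plates, lung cancer cell lines were dosed by pin tool. Dosing was either single-drug or a fixed anchor-drug dose plus five library-drug doses (not always all listed) in √10 steps. After 5 days, nuclei were stained in one fix-and-stain step and counted on 4× images, and relative viability is the nuclei count of treated wells over that of vehicle wells, given as the median of duplicate plates.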

[2] = compound: O=C(Nc1cccc(C(F)(F)F)c1)Nc1cc(S(=O)(=O)NC2CC2)ccc1-c1ccsc1 [AGI-6780] + CCNC(=O)c1noc(-c2cc(C(C)C)c(O)cc2O)c1-c1ccc(CN2CCOCC2)cc1 [Luminespib] (partner 0.01 µM)
Outline: as §1

[3] = compound: O=C(Nc1cccc(C(F)(F)F)c1)Nc1cc(S(=O)(=O)NC2CC2)ccc1-c1ccsc1 [AGI-6780] + COc1cccc2cc(-c3nc([C@H]4CC[C@H](C(=O)O)CC4)n4ncnc(N)c34)[nH]c12 [OSI-027] (partner 0.5 µM)
Outline: as §1

[4] = compound: O=C(Nc1cccc(C(F)(F)F)c1)Nc1cc(S(=O)(=O)NC2CC2)ccc1-c1ccsc1 [AGI-6780] + CS(=O)(=O)N1CCN(Cc2cc3nc(-c4cccc5[nH]ncc45)nc(N4CCOCC4)c3s2)CC1 [Pictilisib] (partner 1 µM)
Outline: as §1

Cell Line	relative viability ([1]; first compound 0.08 µM)	relative viability ([1]; first compound 0.253 µM)	relative viability ([1]; first compound 0.8 µM)	relative viability ([1]; first compound 2.53 µM)	relative viability ([1]; first compound 8 µM)	relative viability ([2]; first compound 0.08 µM)	relative viability ([2]; first compound 0.253 µM)	relative viability ([2]; first compound 0.8 µM)	relative viability ([2]; first compound 2.53 µM)	relative viability ([2]; first compound 8 µM)	relative viability ([3]; first compound 0.08 µM)	relative viability ([3]; first compound 0.253 µM)	relative viability ([3]; first compound 0.8 µM)	relative viability ([3]; first compound 2.53 µM)	relative viability ([3]; first compound 8 µM)	relative viability ([4]; first compound 0.08 µM)	relative viability ([4]; first compound 0.253 µM)	relative viability ([4]; first compound 0.8 µM)	relative viability ([4]; first compound 2.53 µM)	relative viability ([4]; first compound 8 µM)
NCI-H2228	0.726	0.961	0.631	0.667	0.766	0.128	0.15	0.148	0.114	0.113	0.617	0.589	0.488	0.367	0.685	0.378	0.532	0.358	0.133	0.386
EKVX	0.411	0.368	0.368	0.352	0.406	0.916	0.877	0.989	0.918	0.847	0.663	0.665	0.721	0.649	0.716	0.445	0.437	0.495	0.395	0.495
NCI-H520	0.208	0.25	0.232	0.235	0.207	0.23	0.255	0.234	0.178	0.231	0.293	0.3	0.303	0.189	0.28	0.278	0.315	0.332	0.257	0.29
UMC-11	0.34	0.324	0.334		0.336	1.16	1	1.22		1.11	0.488	0.452	0.473		0.509	0.822	0.837	1.08		0.887
NCI-H441	0.248	0.259	0.232	0.195	0.263	0.346	0.333	0.41	0.302	0.361	0.78	0.922	0.599	0.54	0.504	0.562	0.483	0.565	0.288	0.381
EMC-BAC-2		0.535	0.487	0.437	0.543	1.2	1.24	1.17	0.947	1.18	0.383	0.384	0.338	0.301	0.427	0.579	0.575	0.602	0.395	0.617
NCI-H1755	0.452	0.463	0.426	0.433	0.419	0.37	0.49	0.518	0.304	0.42	0.836	0.758	0.677	0.503	0.666	0.445	0.467	0.408	0.368	0.441
ABC-1		0.666	0.846	0.608	0.905	0.58	0.447	0.63	0.821	0.408	0.469	0.524	0.688	0.55	0.595	0.86	0.865	1.05	0.864	0.756
NCI-H647	0.416	0.36	0.48	0.332	0.422	0.0935	0.181	0.12	0.103	0.118	0.784	0.657	0.673	0.668	0.714	0.428	0.452	0.421	0.347	0.342
H3255	0.292	0.304	0.307	0.315	0.31	0.808	0.925	0.905	0.852	0.949	0.667	0.55	0.551	0.523	0.584	0.475	0.436	0.512	0.457	0.443
NCI-H1915	0.525	0.506	0.518	0.46	0.524	0.781	0.894	0.879	0.698	0.836	0.678	0.663	0.594	0.465	0.623	1.02	1.04	0.976	0.855	1.03
NCI-H2009	0.198	0.158	0.262	0.194	0.236	1.01	1.04	0.994	0.988	0.946	0.667	0.7	0.575	0.668	0.696	0.731	0.884	0.911	0.737	0.867
NCI-H650	0.34	0.3	0.258	0.333	0.334	0.673	0.874	0.865	0.793	0.946	0.509	0.59	0.462	0.443	0.475	0.872	0.769	0.833	0.775	0.826
NCI-H1793	0.347	0.328	0.342	0.262	0.287	0.211	0.162	0.175	0.155	0.207	0.302	0.27	0.359	0.197	0.293	0.272	0.364	0.351	0.344	0.303
NCI-H1650	0.297	0.456	0.447	0.442	0.432	0.187	0.203	0.219	0.228	0.191	0.641	0.597	0.856	0.552	0.638	0.566	0.555	0.678	0.568	0.586
